Data as given in ChEMBL document CHEMBL5696442, “Discovery of type II inhibitors of TGFβ-activated kinase 1 (TAK1) and mitogen-activated protein kinase kinase kinase kinase 2 (MAP4K2)” (J Med Chem, 2015).
Calls of active or inactive are those of the source. The calls are words filed in the database; no cut-off is given here.

Key:
[1] = Inhibition of KHS2 Lys1 labeling site in human Huh-7 cells at 1 uM by KiNativ Profiling analysis relative to control; conditions: condition cancer
[2] = target: T1, Scaffold protein ILK (Homo sapiens) (UniProt Q13418); test: Inhibition of ILK Protein Kinase Domain labeling site in human Huh-7 cells at 1 uM by KiNativ Profiling analysis relative to control; format: cell-based
T1 sequence (whole entry): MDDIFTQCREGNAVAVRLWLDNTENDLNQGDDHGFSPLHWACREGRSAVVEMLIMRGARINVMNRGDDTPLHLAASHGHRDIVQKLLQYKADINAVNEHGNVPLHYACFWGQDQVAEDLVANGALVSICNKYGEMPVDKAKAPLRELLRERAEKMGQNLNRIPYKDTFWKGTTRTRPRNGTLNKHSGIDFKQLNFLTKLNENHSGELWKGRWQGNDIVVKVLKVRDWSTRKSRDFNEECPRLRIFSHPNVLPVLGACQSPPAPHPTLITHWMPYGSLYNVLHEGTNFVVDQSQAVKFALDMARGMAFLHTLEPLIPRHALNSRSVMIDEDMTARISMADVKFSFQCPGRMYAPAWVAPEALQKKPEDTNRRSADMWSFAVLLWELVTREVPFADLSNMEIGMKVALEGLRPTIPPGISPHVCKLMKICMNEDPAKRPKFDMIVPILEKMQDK

[3] = target: T2, Tyrosine-protein kinase ABL2 (Homo sapiens, UniProt P42684); test: Inhibition of ARG ACT labeling site in human A-375 cells at 0.05 uM by KiNativ Profiling analysis relative to control; format: cell-based
T2 sequence (P42684 whole entry): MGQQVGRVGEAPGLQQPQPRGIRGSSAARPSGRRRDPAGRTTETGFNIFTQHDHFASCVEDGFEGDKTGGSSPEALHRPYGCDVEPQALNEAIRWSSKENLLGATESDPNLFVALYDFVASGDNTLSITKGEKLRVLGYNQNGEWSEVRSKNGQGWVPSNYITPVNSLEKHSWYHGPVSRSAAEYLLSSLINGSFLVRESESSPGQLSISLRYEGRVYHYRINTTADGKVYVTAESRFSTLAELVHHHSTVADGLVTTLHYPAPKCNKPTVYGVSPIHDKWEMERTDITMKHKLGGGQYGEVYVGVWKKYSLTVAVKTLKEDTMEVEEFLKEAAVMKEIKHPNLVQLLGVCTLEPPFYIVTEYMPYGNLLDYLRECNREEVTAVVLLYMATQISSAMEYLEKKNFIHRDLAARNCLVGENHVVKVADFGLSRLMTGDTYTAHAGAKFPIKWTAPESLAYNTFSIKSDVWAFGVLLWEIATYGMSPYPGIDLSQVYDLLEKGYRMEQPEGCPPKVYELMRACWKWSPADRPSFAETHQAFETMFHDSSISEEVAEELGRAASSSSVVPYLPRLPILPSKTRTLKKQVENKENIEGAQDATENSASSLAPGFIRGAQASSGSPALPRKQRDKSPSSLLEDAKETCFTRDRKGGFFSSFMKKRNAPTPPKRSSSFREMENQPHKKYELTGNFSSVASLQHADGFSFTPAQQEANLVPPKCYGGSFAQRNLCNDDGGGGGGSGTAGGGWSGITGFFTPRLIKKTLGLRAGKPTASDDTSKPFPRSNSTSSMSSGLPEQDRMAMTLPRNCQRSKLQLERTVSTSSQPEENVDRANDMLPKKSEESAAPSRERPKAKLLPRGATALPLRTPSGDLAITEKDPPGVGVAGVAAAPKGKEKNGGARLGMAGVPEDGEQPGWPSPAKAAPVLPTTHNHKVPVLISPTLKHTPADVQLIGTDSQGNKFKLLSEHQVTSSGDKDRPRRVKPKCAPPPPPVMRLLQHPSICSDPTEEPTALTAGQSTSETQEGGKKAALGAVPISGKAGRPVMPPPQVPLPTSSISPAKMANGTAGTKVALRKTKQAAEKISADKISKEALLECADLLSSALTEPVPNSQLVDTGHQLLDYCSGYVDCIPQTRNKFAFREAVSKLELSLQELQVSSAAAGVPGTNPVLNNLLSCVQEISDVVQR

[4] = target: T1, Scaffold protein ILK (Homo sapiens); test: Inhibition of ILK K1 labeling site in human Huh-7 cells at 10 uM by KiNativ Profiling analysis relative to control; format: cell-based
[5] = target: TRAF2 and NCK-interacting protein kinase (Homo sapiens) (UniProt Q9UKE5); test: Inhibition of TNIK K1 labeling site in human Huh-7 cells at 1 uM by KiNativ Profiling analysis relative to control; format: cell-based
Sequence of TRAF2 and NCK-interacting protein kinase (Homo sapiens) (Q9UKE5 whole entry, looked up): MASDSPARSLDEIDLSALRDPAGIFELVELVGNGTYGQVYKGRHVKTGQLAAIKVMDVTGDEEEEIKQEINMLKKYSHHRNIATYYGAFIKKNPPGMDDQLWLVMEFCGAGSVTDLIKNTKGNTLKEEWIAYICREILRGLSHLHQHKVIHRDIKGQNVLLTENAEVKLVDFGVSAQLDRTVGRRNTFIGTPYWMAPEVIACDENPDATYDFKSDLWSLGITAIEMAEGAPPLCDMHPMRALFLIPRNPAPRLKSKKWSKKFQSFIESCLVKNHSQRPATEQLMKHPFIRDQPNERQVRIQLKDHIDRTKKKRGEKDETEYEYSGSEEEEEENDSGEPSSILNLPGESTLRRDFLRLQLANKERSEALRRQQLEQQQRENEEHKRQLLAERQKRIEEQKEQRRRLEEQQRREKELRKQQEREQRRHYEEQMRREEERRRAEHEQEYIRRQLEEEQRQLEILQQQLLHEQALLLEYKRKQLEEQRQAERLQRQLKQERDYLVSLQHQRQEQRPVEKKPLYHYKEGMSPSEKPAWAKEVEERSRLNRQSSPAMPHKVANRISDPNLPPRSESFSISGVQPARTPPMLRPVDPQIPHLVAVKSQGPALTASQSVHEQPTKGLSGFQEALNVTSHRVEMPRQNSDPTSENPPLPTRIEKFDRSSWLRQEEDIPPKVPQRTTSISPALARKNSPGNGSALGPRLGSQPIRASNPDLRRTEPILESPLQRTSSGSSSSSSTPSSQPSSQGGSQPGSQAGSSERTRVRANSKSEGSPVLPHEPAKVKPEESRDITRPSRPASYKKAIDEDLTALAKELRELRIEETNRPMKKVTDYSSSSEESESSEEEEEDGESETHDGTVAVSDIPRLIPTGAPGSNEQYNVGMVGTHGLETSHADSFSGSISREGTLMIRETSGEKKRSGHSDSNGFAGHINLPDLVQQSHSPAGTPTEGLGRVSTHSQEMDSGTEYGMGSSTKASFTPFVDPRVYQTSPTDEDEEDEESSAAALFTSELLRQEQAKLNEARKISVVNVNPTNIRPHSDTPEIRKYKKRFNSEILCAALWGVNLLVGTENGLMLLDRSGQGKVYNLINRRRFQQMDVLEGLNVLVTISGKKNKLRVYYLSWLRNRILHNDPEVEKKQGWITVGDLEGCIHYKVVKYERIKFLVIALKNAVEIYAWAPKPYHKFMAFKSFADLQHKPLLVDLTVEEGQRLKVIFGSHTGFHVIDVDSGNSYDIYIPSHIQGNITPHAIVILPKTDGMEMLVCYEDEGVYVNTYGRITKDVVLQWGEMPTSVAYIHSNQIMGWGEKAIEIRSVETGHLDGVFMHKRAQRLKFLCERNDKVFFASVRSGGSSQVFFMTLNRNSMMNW

[6] = target: Tyrosine-protein kinase ABL1 (Homo sapiens, UniProt P00519); test: Inhibition of ABL ACT labeling site in human A-375 cells at 0.05 uM by KiNativ Profiling analysis relative to control; format: cell-based
[7] = target: DNA-dependent protein kinase catalytic subunit (Homo sapiens) (UniProt P78527); test: Inhibition of PRKDC ATP labeling site harbouring KGGSWIQEINVAEKNWYPR in human Huh-7 cells at 1 uM by KiNativ Profiling analysis relative to control; format: cell-based
[8] = tested on: Tyrosine-protein kinase ABL1 (Homo sapiens), P00519 [Q252H]; test: Inhibition of ABL1 Q252H mutant (unknown origin) at 10 uM by Ambit Kinomescan binding assay relative to control
[9] = target: T2, Tyrosine-protein kinase ABL2; test: Inhibition of ARG Lys1 labeling site in human A-375 cells at 0.05 uM by KiNativ Profiling analysis relative to control; format: cell-based
[10] = target: Serine/threonine-protein kinase 17B (Homo sapiens) (UniProt O94768); test: Inhibition of DRAK2 (unknown origin) at 10 uM by Ambit Kinomescan binding assay
Sequence of Serine/threonine-protein kinase 17B (Homo sapiens) (O94768 whole entry): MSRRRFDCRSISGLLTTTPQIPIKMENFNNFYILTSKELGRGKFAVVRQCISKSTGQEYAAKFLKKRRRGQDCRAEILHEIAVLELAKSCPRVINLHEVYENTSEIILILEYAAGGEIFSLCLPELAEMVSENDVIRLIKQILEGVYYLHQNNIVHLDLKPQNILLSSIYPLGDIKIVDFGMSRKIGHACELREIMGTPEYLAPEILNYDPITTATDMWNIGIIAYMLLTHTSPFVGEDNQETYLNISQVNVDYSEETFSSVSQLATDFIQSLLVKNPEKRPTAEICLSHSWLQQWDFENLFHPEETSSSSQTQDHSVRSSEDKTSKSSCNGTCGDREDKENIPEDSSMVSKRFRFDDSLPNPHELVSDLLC

[11] = target: AMPK alpha1/alpha2 (Homo sapiens) (UniProt P54646+Q13131); test: Inhibition of AMPK alpha1/2 K2 labeling site in human Huh-7 cells at 1 uM by KiNativ Profiling analysis relative to control; format: cell-based
Sequence of AMPK alpha1/alpha2 (Homo sapiens) (P54646 whole entry, looked up): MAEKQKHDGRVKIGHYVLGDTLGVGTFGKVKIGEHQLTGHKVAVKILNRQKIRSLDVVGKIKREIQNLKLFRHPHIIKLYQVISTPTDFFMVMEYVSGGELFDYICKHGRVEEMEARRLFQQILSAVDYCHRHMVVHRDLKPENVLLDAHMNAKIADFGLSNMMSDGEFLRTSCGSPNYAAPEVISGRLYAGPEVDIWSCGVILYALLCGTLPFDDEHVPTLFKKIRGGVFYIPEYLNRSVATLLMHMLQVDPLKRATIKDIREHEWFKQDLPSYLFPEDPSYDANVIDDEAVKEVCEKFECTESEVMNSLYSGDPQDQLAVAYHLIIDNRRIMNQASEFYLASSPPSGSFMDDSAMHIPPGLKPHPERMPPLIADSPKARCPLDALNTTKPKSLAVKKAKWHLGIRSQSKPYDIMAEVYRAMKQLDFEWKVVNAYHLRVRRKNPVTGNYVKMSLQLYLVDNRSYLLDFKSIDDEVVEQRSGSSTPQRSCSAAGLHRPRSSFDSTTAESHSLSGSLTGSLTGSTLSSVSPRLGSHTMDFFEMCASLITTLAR
Sequence of AMPK alpha1/alpha2 (Homo sapiens) (Q13131 whole entry, looked up): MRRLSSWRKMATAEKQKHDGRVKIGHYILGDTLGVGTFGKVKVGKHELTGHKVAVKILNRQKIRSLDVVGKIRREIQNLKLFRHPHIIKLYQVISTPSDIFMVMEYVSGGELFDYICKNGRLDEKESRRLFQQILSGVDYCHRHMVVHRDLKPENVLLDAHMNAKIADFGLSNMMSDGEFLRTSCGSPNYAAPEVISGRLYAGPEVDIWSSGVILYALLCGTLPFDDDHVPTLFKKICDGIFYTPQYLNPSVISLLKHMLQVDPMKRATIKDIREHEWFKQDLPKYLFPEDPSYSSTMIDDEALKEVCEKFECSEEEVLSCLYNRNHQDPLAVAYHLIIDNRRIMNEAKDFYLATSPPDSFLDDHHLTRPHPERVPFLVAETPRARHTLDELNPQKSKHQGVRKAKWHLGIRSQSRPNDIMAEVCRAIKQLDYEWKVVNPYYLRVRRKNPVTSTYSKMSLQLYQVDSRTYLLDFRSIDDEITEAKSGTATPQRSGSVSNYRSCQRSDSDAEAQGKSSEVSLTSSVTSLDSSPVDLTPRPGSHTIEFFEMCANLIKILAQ

[12] = target: T3, Serine/threonine-protein kinase greatwall (Homo sapiens) (UniProt Q96GX5); test: Inhibition of MASTL ATP labeling site in human Huh-7 cells at 1 uM by KiNativ Profiling analysis relative to control; format: cell-based
T3 sequence (whole entry): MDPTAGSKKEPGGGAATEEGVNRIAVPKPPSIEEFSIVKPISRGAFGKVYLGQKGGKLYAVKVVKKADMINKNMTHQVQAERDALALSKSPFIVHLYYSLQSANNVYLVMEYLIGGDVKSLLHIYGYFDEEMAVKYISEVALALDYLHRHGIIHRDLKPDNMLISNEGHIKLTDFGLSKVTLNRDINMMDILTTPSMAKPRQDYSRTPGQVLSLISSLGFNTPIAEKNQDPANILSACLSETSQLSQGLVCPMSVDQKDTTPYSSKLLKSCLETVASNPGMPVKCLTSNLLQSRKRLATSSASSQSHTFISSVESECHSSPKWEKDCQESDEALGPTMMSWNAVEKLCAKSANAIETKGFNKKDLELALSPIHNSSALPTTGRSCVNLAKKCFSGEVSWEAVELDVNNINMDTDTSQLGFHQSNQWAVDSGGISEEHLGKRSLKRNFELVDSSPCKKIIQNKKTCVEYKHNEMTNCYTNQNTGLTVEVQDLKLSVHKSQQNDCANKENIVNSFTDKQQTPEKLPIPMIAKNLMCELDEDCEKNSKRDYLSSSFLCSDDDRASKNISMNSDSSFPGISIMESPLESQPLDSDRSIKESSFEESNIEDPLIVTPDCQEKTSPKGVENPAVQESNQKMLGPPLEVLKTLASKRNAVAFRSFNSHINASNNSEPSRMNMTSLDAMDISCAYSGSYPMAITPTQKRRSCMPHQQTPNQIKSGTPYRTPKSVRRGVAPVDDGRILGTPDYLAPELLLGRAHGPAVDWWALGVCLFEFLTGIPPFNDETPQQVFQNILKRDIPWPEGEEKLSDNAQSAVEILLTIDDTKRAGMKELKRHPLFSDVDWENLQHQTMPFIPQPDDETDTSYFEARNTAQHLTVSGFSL

[13] = target: Tyrosine-protein kinase HCK (Homo sapiens) (UniProt P08631); test: Inhibition of HCK (unknown origin) at 1 uM by Ambit Kinomescan binding assay relative to control; values are per cent of control
[14] = target: Ribosomal protein S6 kinase alpha-1 (Homo sapiens) (UniProt Q15418); test: Inhibition of RSK1 domain1 ACT labeling site in human A-375 cells at 5 uM by KiNativ Profiling analysis relative to control; format: cell-based
Sequence of Ribosomal protein S6 kinase alpha-1 (Homo sapiens) (Q15418 whole entry, the tested form may be a part): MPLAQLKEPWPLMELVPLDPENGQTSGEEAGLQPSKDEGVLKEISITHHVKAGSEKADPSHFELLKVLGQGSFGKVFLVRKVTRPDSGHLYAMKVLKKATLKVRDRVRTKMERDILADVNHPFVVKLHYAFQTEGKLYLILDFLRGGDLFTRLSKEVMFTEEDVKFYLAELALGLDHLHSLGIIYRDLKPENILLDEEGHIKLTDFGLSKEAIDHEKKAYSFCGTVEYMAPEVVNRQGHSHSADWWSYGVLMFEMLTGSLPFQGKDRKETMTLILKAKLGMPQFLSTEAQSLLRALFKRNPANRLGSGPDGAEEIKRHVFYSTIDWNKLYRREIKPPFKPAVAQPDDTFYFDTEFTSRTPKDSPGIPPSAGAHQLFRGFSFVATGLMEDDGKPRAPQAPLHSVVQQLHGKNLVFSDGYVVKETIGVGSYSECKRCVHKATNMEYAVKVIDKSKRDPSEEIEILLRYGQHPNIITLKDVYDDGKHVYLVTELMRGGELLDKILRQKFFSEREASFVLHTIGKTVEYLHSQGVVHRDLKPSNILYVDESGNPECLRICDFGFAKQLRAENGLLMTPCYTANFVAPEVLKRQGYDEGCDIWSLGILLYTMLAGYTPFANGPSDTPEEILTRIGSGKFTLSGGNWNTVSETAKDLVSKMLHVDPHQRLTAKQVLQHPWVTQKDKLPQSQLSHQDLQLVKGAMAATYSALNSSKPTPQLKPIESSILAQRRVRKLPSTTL

CNc1cc(Oc2cc(C(=O)Nc3cc(N4CCN(C)CC4)cc(C(F)(F)F)c3)ccc2C)ncn1
inhibition at 1 µM [1]: 5.3% | inhibition [2]: -0.1%

CCN1CCN(Cc2ccc(NC(=O)c3ccc(C)c(Oc4ccnc5[nH]ccc45)c3)cc2C(F)(F)F)CC1
inhibition [3]: 88.5% | inhibition [4]: -5.7% | inhibition [5]: 35.6% | inhibition [6]: 88.5% | inhibition [7]: 30.8% | inhibition [8]: 0.4% | inhibition [9]: 84.8% | inhibition [10]: inactive | inhibition [11]: 12.5% | inhibition [12]: 3.6%

CCN1CCN(Cc2ccc(NC(=O)c3ccc(C)c(/C=C/c4cnc5[nH]ccc5c4OC)c3)cc2C(F)(F)F)CC1
residual activity [13]: 0.5% | inhibition [14]: 14.7%
